We go through 27 compounds from patent publication US9487510B2, “Substituted heterocyclic acetamides as kappa opioid receptor (KOR) agonists” (Dr. Reddy's Laboratories Ltd., priority 2012, dated 2016).

One may read the EC50 as the concentration giving half of the maximal effect. A higher EC50 goes with lower potency in that assay.

This test addresses human KOR receptor (Homo sapiens, UniProt P41145). The test can be described thus: IP-One HTRF assay, potency of KOR agonists, dose-response in transiently transfected COS-7 cells. Format: cell-based.

Sequence of human KOR receptor (P41145 whole entry): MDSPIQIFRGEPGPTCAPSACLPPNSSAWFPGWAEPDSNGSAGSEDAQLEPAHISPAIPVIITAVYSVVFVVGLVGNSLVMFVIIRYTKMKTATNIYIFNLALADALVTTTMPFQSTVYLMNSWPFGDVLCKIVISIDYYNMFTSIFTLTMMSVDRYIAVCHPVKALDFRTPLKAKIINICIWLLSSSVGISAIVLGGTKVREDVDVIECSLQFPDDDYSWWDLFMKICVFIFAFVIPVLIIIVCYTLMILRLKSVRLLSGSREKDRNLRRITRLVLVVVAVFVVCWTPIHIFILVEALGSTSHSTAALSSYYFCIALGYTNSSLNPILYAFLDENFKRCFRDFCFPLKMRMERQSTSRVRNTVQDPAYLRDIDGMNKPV

`CN(C(=O)Cc1ccc2c(c1)NS(=O)(=O)C2)[C@H](CN1CC[C@H](O)C1)c1cccc(-c2ncon2)c1` [Example 186, N-((S)-1-(3-(1,2,4-oxadiazol-3-yl)phenyl)-2-((S)-3-hydroxypyrrolidin-1-yl)ethyl)-2-(2,2-dioxido-1,3-dihydrobenzo[c]isothiazol-6-yl)-N-methylacetamide] returned an EC50 of at most 50 nM. Under `CN(C(=O)Cc1ccc2c(c1)NS(=O)(=O)C2)[C@H](CN1CC[C@H](O)C1)c1cccc(-c2noc(C(F)(F)F)n2)c1` [Example 187, 2-(2,2-dioxido-1,3-dihydrobenzo [c]isothiazol-6-yl)-N-((S)-2-((S)-3-hydroxypyrrolidin-1-yl)-1-(3-(5-(trifluoromethyl)-1,2,4-oxadiazol-3-yl)phenyl)ethyl)-N-methylacetamide 2,2,2-trifluoroacetate] stands at most 50 nM; under `CCN(CC)C(=O)c1cccc([C@@H](CN2CC[C@H](O)C2)N(C)C(=O)Cc2ccc3sc(=O)[nH]c3c2)c1` [Example 188, N,N-diethyl-3-((S)-2-((S)-3-hydroxypyrrolidin-1-yl)-1-(N-methyl-2-(2-oxo-2,3-dihydrobenzo[d]thiazol-5-yl)acetamido)ethyl)benzamide], at most 50 nM. Under `CN(C(=O)Cc1ccc2sc(=O)[nH]c2c1)[C@H](CN1CC[C@H](O)C1)c1cccc(-c2ncon2)c1` [Example 189, N-((S)-1-(3-(1,2,4-oxadiazol-3-yl)phenyl)-2-((S)-3-hydroxypyrrolidin-1-yl)ethyl)-N-methyl-2-(2-oxo-2,3-dihydrobenzo[d]thiazol-5-yl)acetamide 2,2,2-trifluoroacetate] stands at most 50 nM. The same measure for `CN(C(=O)Cc1ccc2ncc(=O)[nH]c2c1)[C@H](CN1CC[C@H](O)C1)c1cccc(-c2ncon2)c1` [Example 190, N-((S)-1-(3-(1,2,4-oxadiazol-3-yl)phenyl)-2-((S)-3-hydroxypyrrolidin-1-yl)ethyl)-N-methyl-2-(3-oxo-3,4-dihydroquinoxalin-6-yl)acetamide 2,2,2-trifluoroacetate]: at most 50 nM. As to `CN(C(=O)Cc1ccc2sc(=O)[nH]c2c1)[C@H](CN1CC[C@H](O)C1)c1cccc(-c2ncc[nH]2)c1` [Example 191, N-((S)-1-(3-(1H-imidazol-2-yl)phenyl)-2-((S)-3-hydroxypyrrolidin-1-yl)ethyl)-N-methyl-2-(2-oxo-2,3-dihydrobenzo[d]thiazol-5-yl)acetamide], the EC50 was at most 50 nM. Under `CN(C(=O)Cc1ccc2sc(=O)[nH]c2c1)[C@H](CN1CC[C@H](O)C1)c1cccc(-c2nccs2)c1` [Example 192, N-((S)-2-((S)-3-hydroxypyrrolidin-1-yl)-1-(3-(thiazol-2-yl)phenyl)ethyl)-N-methyl-2-(2-oxo-2,3-dihydrobenzo[d]thiazol-5-yl)acetamide] stands 101 to 1000 nM. The same measure for `Cc1nc(-c2cccc([C@@H](CN3CC[C@H](O)C3)N(C)C(=O)Cc3ccc4ncc(=O)[nH]c4c3)c2)no1` [Example 194, N-((S)-2-((S)-3-hydroxypyrrolidin-1-yl)-1-(3-(5-methyl-1,2,4-oxadiazol-3-yl)phenyl)ethyl)-N-methyl-2-(3-oxo-3,4-dihydroquinoxalin-6-yl)acetamide]: at most 50 nM; for `CN(C(=O)Cc1ccc2c(c1)NS(=O)(=O)C2)[C@H](CN1CC[C@H](O)C1)c1cccc(C(=O)NCC(F)(F)F)c1` [Example 195, 3-((S)-1-(2-(2,2-dioxido-1,3-dihydrobenzo[c]isothiazol-6-yl)-N-methylacetamido)-2-((S)-3-hydroxypyrrolidin-1-yl)ethyl)-N-(2,2,2-trifluoroethyl)benzamide]: at most 50 nM. For `CN(C(=O)Cc1ccc2ncc(=O)[nH]c2c1)[C@H](CN1CC[C@H](O)C1)c1cccc(C(=O)NCC(F)(F)F)c1` [Example 196, 3-((S)-2-((S)-3-hydroxypyrrolidin-1-yl)-1-(N-methyl-2-(3-oxo-3,4-dihydroquinoxalin-6-yl)acetamido)ethyl)-N-(2,2,2-trifluoroethyl)benzamide], the EC50 is at most 50 nM. In the case of `CN(C(=O)Cc1ccc2c(c1)NC(=O)C2)[C@H](CN1CC[C@H](O)C1)c1cc(F)cc(C#N)c1` [Example 197, N-((S)-1-(3-cyano-5-fluorophenyl)-2-((S)-3-hydroxypyrrolidin-1-yl)ethyl)-N-methyl-2-(2-oxoindolin-6-yl)acetamide], the EC50 was in the range of 51 to 100 nM. Under `CN(C(=O)Cc1ccc2c(c1)NC(=O)C2)[C@H](CN1CC[C@H](O)C1)c1cccc(-c2ncc[nH]2)c1` [Example 198, N-((S)-1-(3-(1H-imidazol-2-yl)phenyl)-2-((S)-3-hydroxypyrrolidin-1-yl)ethyl)-N-methyl-2-(2-oxoindolin-6-yl)acetamide 2,2,2-trifluoroacetate] stands at most 50 nM. Under `CN(C(=O)Cc1ccc2c(c1)NS(=O)(=O)C2)[C@H](CN1CC[C@H](O)C1)c1cc(F)cc(C#N)c1` [Example 199, N-((S)-1-(3-cyano-5-fluorophenyl)-2-((S)-3-hydroxypyrrolidin-1-yl)ethyl)-2-(2,2-dioxido-1,3-dihydrobenzo[c]isothiazol-6-yl)-N-methylacetamide] stands at most 50 nM; under `CN(C(=O)Cc1ccc2ncc(=O)[nH]c2c1)[C@H](CN1CC[C@H](O)C1)c1cc(F)cc(C#N)c1` [Example 200, N-((S)-1-(3-cyano-5-fluorophenyl)-2-((S)-3-hydroxypyrrolidin-1-yl)ethyl)-N-methyl-2-(3-oxo-3,4-dihydroquinoxalin-6-yl)acetamide], at most 50 nM. `C#Cc1cccc([C@@H](CN2CC[C@H](O)C2)N(C)C(=O)Cc2ccc3c(c2)NC(=O)CS3(=O)=O)c1` [Example 201, 2-(1,1-dioxido-3-oxo-3,4-dihydro-2H-benzo[b][1,4]thiazin-6-yl)-N-((S)-1-(3-ethynylphenyl)-2-((S)-3-hydroxypyrrolidin-1-yl)ethyl)-N-methylacetamide] showed an EC50 of at most 50 nM. The same measure for `CN(C(=O)Cc1ccc2c(c1)NS(=O)(=O)C2)[C@H](CN1CC[C@H](O)C1)c1cccc(-c2ncc[nH]2)c1` [Example 202, N-((S)-1-(3-(1H-imidazol-2-yl)phenyl)-2-((S)-3-hydroxypyrrolidin-1-yl)ethyl)-2-(2,2-dioxido-1,3-dihydrobenzo[c]isothiazol-6-yl)-N-methylacetamide]: 51 to 100 nM; for `CN(C(=O)Cc1ccc2c(c1)NS(=O)(=O)C2)[C@H](CN1CC[C@H](O)C1)c1cccc(C#N)c1` [Example 203, N-((S)-1-(3-cyanophenyl)-2-((S)-3-hydroxypyrrolidin-1-yl)ethyl)-2-(2,2-dioxido-1,3-dihydrobenzo[c]isothiazol-6-yl)-N-methylacetamide]: at most 50 nM. Under `CCC#Cc1cccc([C@@H](CN2CC[C@H](O)C2)N(C)C(=O)Cc2ccc3c(c2)NC(=O)C3)c1` [Example 204, N-((S)-1-(3-(but-1-yn-1-yl)phenyl)-2-((S)-3-hydroxypyrrolidin-1-yl)ethyl)-N-methyl-2-(2-oxoindolin-6-yl)acetamide] stands at most 50 nM; under `CCC#Cc1cccc([C@@H](CN2CC[C@H](O)C2)N(C)C(=O)Cc2ccc3sc(=O)[nH]c3c2)c1` [Example 205, N-((S)-1-(3-(but-1-yn-1-yl)phenyl)-2-((S)-3-hydroxypyrrolidin-1-yl)ethyl)-N-methyl-2-(2-oxo-2,3-dihydrobenzo[d]thiazol-5-yl)acetamide], at most 50 nM; under `CCC#Cc1cccc([C@@H](CN2CC[C@H](O)C2)N(C)C(=O)Cc2ccc3ncc(=O)[nH]c3c2)c1` [Example 206, N-((S)-1-(3-(but-1-yn-1-yl)phenyl)-2-((S)-3-hydroxypyrrolidin-1-yl)ethyl)-N-methyl-2-(3-oxo-3,4-dihydroquinoxalin-6-yl)acetamide], at most 50 nM. The same measure for `CN(C)C(=O)c1cccc([C@@H](CN2CC[C@H](O)C2)N(C)C(=O)Cc2ccc3c(c2)NC(=O)C3)c1` [Example 207, 3-((S)-2-((S)-3-hydroxypyrrolidin-1-yl)-1-(N-methyl-2-(2-oxoindolin-6-yl)acetamido)ethyl)-N,N-dimethylbenzamide]: at most 50 nM. `CCN(CC)C(=O)c1cccc([C@@H](CN2CC[C@H](O)C2)N(C)C(=O)Cc2ccc3c(c2)NS(=O)(=O)C3)c1` [Example 208, 3-((S)-1-(2-(2,2-dioxido-1,3-dihydrobenzo[c]isothiazol-6-yl)-N-methylacetamido)-2-((S)-3-hydroxypyrrolidin-1-yl)ethyl)-N,N-diethylbenzamide]: the EC50 is at most 50 nM. Under `CCN(CC)C(=O)c1cccc([C@@H](CN2CC[C@H](O)C2)N(C)C(=O)Cc2ccc3ncc(=O)[nH]c3c2)c1` [Example 209, N,N-diethyl-3-((S)-2-((S)-3-hydroxypyrrolidin-1-yl)-1-(N-methyl-2-(3-oxo-3,4-dihydroquinoxalin-6-yl)acetamido)ethyl)benzamide 2,2,2-trifluoroacetate] stands at most 50 nM; under `CN(C)C(=O)c1cccc([C@@H](CN2CC[C@H](O)C2)N(C)C(=O)Cc2ccc3c(c2)NS(=O)(=O)C3)c1` [Example 210, 3-((S)-1-(2-(2,2-dioxido-1,3-dihydrobenzo[c]isothiazol-6-yl)-N-methylacetamido)-2-((S)-3-hydroxypyrrolidin-1-yl)ethyl)-N,N-dimethylbenzamide], at most 50 nM. Under `CN(C)C(=O)c1cccc([C@@H](CN2CC[C@H](O)C2)N(C)C(=O)Cc2ccc3ncc(=O)[nH]c3c2)c1` [Example 211, 3-((S)-2-((S)-3-hydroxypyrrolidin-1-yl)-1-(N-methyl-2-(3-oxo-3,4-dihydroquinoxalin-6-yl)acetamido)ethyl)-N,N-dimethylbenzamide] stands at most 50 nM; under `CN(C(=O)Cc1ccc2c(c1)NC(=O)CS2(=O)=O)[C@H](CN1CC[C@H](O)C1)c1cccc(-c2ncon2)c1` [Example 212, N-((S)-1-(3-(1,2,4-oxadiazol-3-yl)phenyl)-2-((S)-3-hydroxypyrrolidin-1-yl)ethyl)-2-(1,1-dioxido-3-oxo-3,4-dihydro-2H-benzo[b][1,4]thiazin-6-yl)-N-methylacetamide2,2,2-trifluoroacetate], at most 50 nM; under `CN(C(=O)Cc1ccc2c(c1)NC(=O)C2)[C@H](CN1CC[C@H](O)C1)c1cccc(-c2nccn2C)c1` [Example 213, N-((S)-2-((S)-3-hydroxypyrrolidin-1-yl)-1-(3-(1-methyl-1H-imidazol-2-yl)phenyl)ethyl)-N-methyl-2-(2-oxoindolin-6-yl)acetamide], at most 50 nM.
